Patent US10774076B2, “Benzazole compounds and methods for making and using the compounds” (Rigel Pharmaceuticals, Inc., priority 2015, dated 2020)
pEC50: −log10 of the molar value.

How the values were obtained:
[1] = test system: IL23-p19; experiment: Compound screening using DC cells: LPS-induced IL-23 (p19/p40) ELISA in IFNγ-primed dendritic cells differentiated from human PBMC; format: cell-based; conditions: Dendritic cell, human PBMC-derived dendritic cells, LPS 1 μg/ml, 18 hours, 10 pt
Experimental: Compound Screening Using DC Cells
Human PBMC cells (400 million) obtained from the vendor were transferred into a T-175 flask containing 15 ml RPMI media (10% FBS) and incubate for 2 hours at 37° C. After 2 hours, the media including floating cells was aspirated out carefully and 12 ml of fresh RPMI media (10% FBS) containing GMCSF (100 ng/ml) and IL4 (20 ng/ml) was added, and the flask was kept in a 37° C. incubator for 7 days.
After 3 days, fresh GMCSF (100 ng/ml) and IL4 (20 ng/ml) were added to the flask and the incubation continued. After 7 days, the fully differentiated cells were harvested by spinning down (1200 rpm/5 min) and aspirating the media. The cells were suspended in fresh RPMI media (10% FBS) containing 50 ng/ml IFNγ (1000 U/ml) and then plated (50K/well in 100 μl) onto a white clear bottom 96 well plate and left in a 37° C. incubator for 24 hours.
After 24 hours incubation, 100 μl of RPMI media was added containing 2× concentrated test compound per well to the above cell-culture media (final concentration becomes 1×) and the plates were pre-incubated for 1 hour at 37° C. before stimulating with LPS.
After 1 hour compound pre-incubation, 10 μl per well of 20× concentrated LPS solution in RPMI media was added to give a final concentration of 1 μg/ml. The mixture was shaken and incubated the plates at 37° C. for an additional 18 hours.
155 μl of the supernatant was harvested from each well carefully (without the tip touching the bottom of the well) and to the remaining 50 μl/well of the cell culture plate was added 50 μl of Cell Titer Glo reagent. The mixture was incubated for 1-2 minutes on a shaker and the plate was read for luminescence intensity to determine the compound cytotoxicity. The cell culture supernatant collected above was used to carry out IL23 ELISA (65 μl—Supernatant) and IL10 ELISA (90 μl—Supernatant) as described below.
Human IL-23 (p19/p40) ELISA Protocol (e-Biosciences)
To 10.5 ml PBS add 50 μl of anti-IL23 (p19) was added capture antibody (2.5 μg/ml). The mixture was mixed well and 100 μl of the coating solution was added to each well of the 96 well white plates from Pierce. The wells were covered and incubated overnight at 4° C.
The anti-IL23 (p19)-antibody-coated plates were washed 2× using TBST (use plate washer) and blocked using 200 μl of 0.5% Casein for 1.5-2 hours at room temperature with shaking.
The plates were washed 2× using TBST and the supernatant was transferred (65 μl/well) to the above pre-blocked/IL23(p19)-antibody-coated 96 well plate, and incubated at room temperature for 1.5 hours with shaking.
The plates were washed 4× using TBST (plate washer) and 100 μl/well detection antibody solution prepared from 2 μl of biotin labeled anti-IL-12 (p40/p70) antibody in 11 ml 1% BSA/PBS solution (I-5000 dilution) was added. The plates were incubated for 1 hour with shaking at Room temperature.
Again, the plates were washed 4× with TBST and 100 μl of HRP labeled Streptavidin (R&D Systems) solution (10 μl/10 ml 1% BSA solution) was added, and the plates were incubated at room temperature for another 45 minutes with shaking.
After 45 minutes, the plates were washed with TBST 4× and 100 ul/well Super Signal ELISA Pico Chemiluminescent Substrate from Pierce (3.5 ml A+3.5 ml B+3.5 ml MQ water) was added. The plates were shaken for 1-2 minutes then read on a plate reader.

[2] = test system: IL23p19; experiment: LPS Induced IL23p19 in THP-1 Cells (with IFNγ Primed) Assay; format: cell-based; conditions: Homo sapiens, IFNγ primed (50 ng/mL), LPS 1 ug/mL, 18 hours, 10 pt, read-out: IL23-p19 ELISA, THP1-IFNy, LPS, 10 pt EC50
Excerpt: LPS Induced IL23p19 in THP-1 Cells (with IFNγ Primed) Assay
THP-1 Cells (ATCC, Cat # TIB-202), Dimethyl Sulfoxide (DMSO) (Sigma-Aldrich, Cat # D2650), RPMI 1640 (Cellgro, Cat #10-040-CM), Fetal Bovine Serum (Sigma, Cat # F4135), Albumin From Bovine Serum (BSA) (Sigma-Aldrich, Cat # A7906), LPS (Serotype K-235, Sigma, Product Number L 2143), IFNγ (Peprotech, Cat #300-02)
Capture antibody: Human IL-23p19 ELISA (e-Bioscience, Cat. #14-7238-85),
Detection antibody: Primary Mouse Biotinylated anti-human IL-12(p40/p70) (e-Bioscience, Cat. #13-7129-85), Secondary HRP-conjugated Streptavidin (R&D Systems, Cat # DY998), 1×PBST Washing Buffer (PBS-Tween tablet) (VWR International, Cat #80058-558), ELISA Blocking Buffer (PBS with 1% BSA), ELISA Dilution Buffer (PBS with 1% BSA), 384 Well Flat-Bottom, MaxiSorp Black Immuno Plates (Thermo Scientific, Cat #12-565-346), 384 Well Flat-Bottom, White Tissue Culture Plates (Thermo Scientific, Cat #12-565-343), Super Signal ELISA Pico Chemiluminescent Substrate (Thermo Scientific, Cat #37070), Cell Titer Glo reagent (Promega, Cat # G7573), Positive control, IKK2VI inhibitor (Calbiochem, Cat #401483), AquaMax 4000 plate washer (Molecular Devices), Luminometer, Wallac Victor2 1420 Multilabel Counter. Method THP-1 Cells Stimulation:
On day 1, 50K/well THP-1 cells were seeded and primed with IFNγ (50 ng/mL) in 384-well plates for about 18 hours in RPMI media with 10% FBS. On day 2, the compound was serially diluted in DMSO from 5 mM in 3-fold dilutions, and then diluted 1:125 in RPMI media with 10% FBS. 50 μL/well 2× compound was added to 50 μL/well THP-1 cells (with IFNγ primed) in duplicate in 384 well tissue culture plates. The cells were pre-incubated with compound for 1 hour at 37° C., 5% CO2 before addition of 10 μL/well 11×LPS to give a final concentration of 1 ug/mL LPS. Day 3, after stimulation for 18 hours at 37° C., 5% CO2, the assay plate was centrifuged and 70 μL/well supernatant was harvested. IL-23p19 protein in 70 μL/well of supernatant was measured by sandwich ELISA, and 25 μl/well Cell Titer Glo reagent was added to the remaining cells to measure compound toxicity.
Human IL-23p19 Sandwich ELISA:
Maxisorp immuno ELISA plates were pre-coated with 25 μL/well of anti-IL-23p19 capture antibody (2.5 ug/mL) in PBS overnight at room temperature. After washing with 1×PBST, the plates were blocked using 100 μL/well of 1% BSA in PBS for 2 hours at room temperature. The plates were washed three times with 1×PBST and 70 μL/well supernatant were added. The plates were incubated at room temperature for 2 hours with shaking and washed three times with 1×PBST. 25 μL/well of biotin labeled anti-IL-12(p40/p70) detection antibody (100 ng/mL) in PBS with 1% BSA was added and the plates were incubated at room temperature for 2 hours with shaking. After washing three times with 1×PBST, 25 μL/well of streptavidin-HRP (1:200) in PBS with 1% BSA was added and the plates were incubated at room temperature for 20 minutes with shaking. The plates were washed three times with 1×PBST and 25 μL/well of Super Signal ELISA Pico Chemiluminescent Substrate were added. The plates were read with a luminometer, and the chemiluminescence values were entered into Athena (Rigel) for curve fitting, EC50 calculation, and database storage.

| Compound | pEC50 [1] | pEC50 [2] |
| --- | --- | --- |
| O=C(Nc1cc2oc(N3CCCCC3)nc2cc1N1CCCCC1)c1ccc(-c2cn[nH]c2)o1 [Compound I-31, N-(2,5-di(piperidin-1-yl)benzo[d]oxazol-6-yl)-5-(1H-pyrazol-4-yl)furan-2-carboxamide] | 6.35 | 6.84 |
| O=C(Nc1cc2oc(N3CCCCC3)nc2cc1N1CCCCC1)c1ccc(-c2cc[nH]n2)o1 [Compound I-32, N-(2,5-di(piperidin-1-yl)benzo[d]oxazol-6-yl)-5-(1H-pyrazol-3-yl)furan-2-carboxamide] | 4.62 | 5.75 |
| O=C(Nc1cc2oc(N3CCCCC3)nc2cc1N1CCCCC1)c1csc(-c2cn[nH]c2)n1 [Compound I-35, N-(2,5-di(piperidin-1-yl)benzo[d]oxazol-6-yl)-2-(1H-pyrazol-4-yl)thiazole-4-carboxamide] | 6.18 | 6.49 |
| O=C(Nc1cc2oc(N3CCOCC3)nc2cc1N1CCCC(F)C1)c1ccc(-c2cn[nH]c2)o1 (centres unmarked) [Compound I-38, N-(5-(3-fluoropiperidin-1-yl)-2-morpholinobenzo[d]oxazol-6-yl)-5-(1H-pyrazol-4-yl)furan-2-carboxamide] | 7.85 | 7.50 |
| Cc1cc(-c2ccc(C(=O)Nc3cc4oc(N5CCOCC5)nc4cc3N3CCCC(F)C3)o2)ccn1 (centres unmarked) [Compound I-39, N-(5-(3-fluoropiperidin-1-yl)-2-morpholinobenzo[d]oxazol-6-yl)-5-(2-methylpyridin-4-yl)furan-2-carboxamide] | 5.09 | 6.45 |
| O=C(Nc1cc2oc(N3CCOCC3)nc2cc1N1CCCC(F)C1)c1csc(-c2cn[nH]c2)n1 (centres unmarked) [Compound I-40, N-(5-(3-fluoropiperidin-1-yl)-2-morpholinobenzo[d]oxazol-6-yl)-2-(1H-pyrazol-4-yl)thiazole-4-carboxamide] | 7.39 | 7.60 |
| Cc1cc(-c2nc(C(=O)Nc3cc4oc(N5CCOCC5)nc4cc3N3CCCC(F)C3)cs2)ccn1 (centres unmarked) [Compound I-41, N-(5-(3-fluoropiperidin-1-yl)-2-morpholinobenzo[d]oxazol-6-yl)-2-(2-methylpyridin-4-yl)thiazole-4-carboxamide] | 5.59 | 6.83 |
| O=C(Nc1cc2oc(N3CCOCC3)nc2cc1N1CCCC(F)(F)C1)c1ccc(-c2cn[nH]c2)o1 [Compound I-42, N-(5-(3,3-difluoropiperidin-1-yl)-2-morpholinobenzo[d]oxazol-6-yl)-5-(1H-pyrazol-4-yl)furan-2-carboxamide] | 7.07 | 7.22 |
| Cc1cc(-c2ccc(C(=O)Nc3cc4oc(N5CCOCC5)nc4cc3N3CCCC(F)(F)C3)o2)ccn1 [Compound I-43, N-(5-(3,3-difluoropiperidin-1-yl)-2-morpholinobenzo[d]oxazol-6-yl)-5-(2-methylpyridin-4-yl)furan-2-carboxamide] | 5.58 | 6.46 |
| O=C(Nc1cc2oc(N3CCOCC3)nc2cc1N1CCCC(F)(F)C1)c1csc(-c2cn[nH]c2)n1 [Compound I-44, N-(5-(3,3-difluoropiperidin-1-yl)-2-morpholinobenzo[d]oxazol-6-yl)-2-(1H-pyrazol-4-yl)thiazole-4-carboxamide] | 7.00 | 7.05 |
| Cc1cc(-c2nc(C(=O)Nc3cc4oc(N5CCOCC5)nc4cc3N3CCCC(F)(F)C3)cs2)ccn1 [Compound I-45, N-(5-(3,3-difluoropiperidin-1-yl)-2-morpholinobenzo[d]oxazol-6-yl)-2-(2-methylpyridin-4-yl)thiazole-4-carboxamide] | 6.40 | 6.47 |
| O=C(Nc1cc2oc(N3CCOCC3)nc2cc1N1CCCC1)c1ccc(-c2cn[nH]c2)o1 [Compound I-46, N-(2-morpholino-5-(pyrrolidin-1-yl)benzo[d]oxazol-6-yl)-5-(1H-pyrazol-4-yl)furan-2-carboxamide] | 7.43 | 7.23 |
| O=C(Nc1cc2oc(N3CCOCC3)nc2cc1N1CCCC1)c1csc(-c2cn[nH]c2)n1 [Compound I-47, N-(2-morpholino-5-(pyrrolidin-1-yl)benzo[d]oxazol-6-yl)-2-(1H-pyrazol-4-yl)thiazole-4-carboxamide] | 7.24 | 7.67 |
| O=C(Nc1cc2oc(N3CCOCC3)nc2cc1N1CCOCC1)c1ccc(-c2cn[nH]c2)o1 [Compound I-48, N-(2,5-dimorpholinobenzo[d]oxazol-6-yl)-5-(1H-pyrazol-4-yl)furan-2-carboxamide] | 6.91 | 7.23 |
| O=C(Nc1cc2oc(N3CCOCC3)nc2cc1N1CCOCC1)c1csc(-c2cn[nH]c2)n1 [Compound I-49, N-(2,5-dimorpholinobenzo[d]oxazol-6-yl)-2-(1H-pyrazol-4-yl)thiazole-4-carboxamide] | 7.32 | 7.30 |
| COCCN(C)c1nc2cc(N3CCCCC3)c(NC(=O)c3ccc(-c4cn[nH]c4)o3)cc2o1 [Compound I-50, N-(2-((2-methoxyethyl)(methyl)amino)-5-(piperidin-1-yl)benzo[d]oxazol-6-yl)-5-(1H-pyrazol-4-yl)furan-2-carboxamide] | 7.12 | 6.88 |
